From patent US20070259927A1, “Remedy for Diabetes” (Takeda Pharmaceutical Company Limited, priority 2004, published 2007) come the findings set out here.

What all share (format): in vivo
For assay [1], the system named is db/db mouse. The assay can be described thus: Experimental Example 1: db/db mouse, powder diet for 3 weeks, pioglitazone and compound A alone or combined. The note with it: db/db mice, in powder diet 3 weeks, mean (n=8)±standard deviation; for plasma insulin level / plasma glucose level / plasma insulin/plasma glucose value: day 21; for plasma insulin level / pancreatic insulin content: pioglitazone 0.01(w/w)%, compound A 0.03(w/w)% (½ fumarate); for plasma glucose level: pioglitazone hydrochloride 0.01(w/w)% as pioglitazone, ½ fumarate of compound A 0.03(w/w)% as compound A; for plasma insulin/plasma glucose value: plasma insulin level divided by plasma glucose level; for pancreatic insulin content: pancreas removed day 23. An excerpt:
First of all, db/db mice (32 mice) were divided into 4 groups of A to D (8 mice in each group), and a powder diet (trade name: CE-2, Clea Japan, Inc., hereinafter the same) was given to group A (control group), a powder diet containing pioglitazone hydrochloride (0.01(w/w) % as pioglitazone) was given to group B, a powder diet containing ½ fumarate of compound A (0.03(w/w) % as compound A) was given to group C, and a powder diet containing pioglitazone hydrochloride (0.01(w/w) % as pioglitazone) and ½ fumarate of compound A (0.03(w/w) % as compound A) was given to group D, for 3 consecutive weeks.
In addition, a powder diet was given to db/+m mice for 3 consecutive weeks, and the mice were used as group E (normal group).
In the above-mentioned groups A to E, blood samples were collected from mice on day 21 from the start of the powder diet administration, and plasma glucose level and plasma insulin level were measured. On day 23 from the start of the powder diet administration, the pancreas was removed from the mice, and the pancreatic insulin content was measured.
The plasma glucose level was measured by an enzyme method using L type Wako Glu2 (trade name, Wako Pure Chemical Industries, Ltd.).
In addition, the plasma insulin level was measured by a radioimmunoassay (trade name, ShionoRIA insulin), and the plasma insulin level was divided by the plasma glucose level to determine the plasma insulin/plasma glucose value.
The pancreatic insulin content was measured as follows.
First, the mouse pancreas was disrupted in its 10 times weight of 75% ethanol (containing 0.15 M hydrochloric acid). The obtained disrupted solution was left standing overnight under the shading conditions at 4·^□C, and centrifuged at 15000 rpm for 5 min. The obtained supernatant was appropriately diluted with PBS(−) (phosphate-buffered saline) containing 0.1% BSA (bovine serum albumin). The insulin content of the diluted solution was measured in the same manner as in the above-mentioned plasma insulin level, and the insulin content per pancreatic tissue weight was calculated.
The results are shown in [Table 1] to [Table 4]. The values in the tables show mean (n=8)±standard deviation.

Assay [2] has as its system db/db mouse. The assay can be described thus: Experimental Example 2: db/db mouse, powder diet for 5 weeks, pioglitazone and vildagliptin alone or combined. The note with it: db/db mice, in powder diet 5 weeks, mean (n=8)±standard deviation; for pancreatic insulin content: pancreas removed day 37. An excerpt:
First of all, db/db mice (32 mice) were divided into 4 groups of F to I (8 mice in each group), and
a powder diet (trade name: CE-2, Clea Japan, Inc., hereinafter the same) was given to group F (control group), a powder diet containing pioglitazone hydrochloride (0.01 (w/w) % as pioglitazone) was given to group G,
a powder diet containing pioglitazone hydrochloride
In addition, a powder diet was given to db/+m mice for 5 consecutive weeks, and the mice were used as group J (normal group).
In the above-mentioned groups F to I, blood samples were collected from mice on day 35 from the start of the powder diet administration, and plasma glucose level and plasma insulin level were measured. On day 37 from the start of the powder diet administration, the pancreas was removed from the mice, and the pancreatic insulin content was measured.
The plasma glucose level, plasma insulin level, plasma insulin/plasma glucose value, and the pancreatic insulin content were measured in the same manner as in Experimental Example 1.
The results are shown in [Table 5] to [Table 8]. The values in the tables show mean (n=8)±standard deviation.

For assay [3], the system named is db/db mouse. Description: Experimental Example 3: db/db mouse, powder diet for 4 weeks, pioglitazone and sitagliptin alone or combined. The note with it: db/db mice, in powder diet 4 weeks, mean (n=8)±standard deviation; for plasma insulin level / plasma glucose level / plasma insulin/plasma glucose value: day 28; for plasma insulin level / pancreatic insulin content: pioglitazone 0.01(w/w)%, sitagliptin 0.03(w/w)%; for plasma glucose level: pioglitazone hydrochloride 0.01(w/w)% as pioglitazone, sitagliptin hydrochloride 0.03(w/w)% as sitagliptin; for plasma insulin/plasma glucose value: plasma insulin level divided by plasma glucose level; for pancreatic insulin content: pancreas removed day 29. The source says: First of all, db/db mice (32 mice) were divided into 4 groups of […] mice in each group), and a powder diet (trade name: CE-2, Clea Japan, Inc., hereinafter the same) was given to group K (control group), a powder diet containing pioglitazone hydrochloride (0.01(w/w) % as pioglitazone) was given to group L, a powder diet containing sitagliptin hydrochloride (0.03(w/w) % as sitagliptin) was given to group M, and a powder diet containing pioglitazone hydrochloride (0.01(w/w) % as pioglitazone) and sitagliptin hydrochloride (0.03(w/w) % as sitagliptin) was given to group N, for 4 consecutive weeks. In addition, a powder diet was given to db/+m mice for 4 consecutive weeks, and the mice were used as group 0 (normal group). In the above-mentioned groups K to N, blood samples were collected from mice on day 28 from the start of the powder diet administration, and plasma glucose level and plasma insulin level were measured. […] The results are shown in [Table 9] to [Table 12]. The values in the tables show mean (n=8)±standard deviation.

Where [4] appears, read: pioglitazone 0.01(w/w)%, vildagliptin 0.03(w/w)%.

Regarding `Cc1ccc(-c2c(CN)c(CC(C)C)nc(C)c2C(=O)O)cc1` [compound A, 5-(aminomethyl)-6-isobutyl-2-methyl-4-(4-methylphenyl)nicotinic acid], in the assay on db/db mouse [1], the plasma insulin level worked out at 135.5 ± 115.4 μU/mL, the plasma glucose level is 502.0 ± 54.3 mg/dL, the “plasma insulin/plasma glucose value” stood at 29.0 ± 28.4 μU/mg and the pancreatic insulin content amounted to 918.4 ± 328.6 μU/mg tissue.

As to `CCc1ccc(CCOc2ccc(CC3SC(=O)NC3=O)cc2)nc1` (stereo not drawn) [pioglitazone], the plasma insulin level in the assay on db/db mouse [1] was determined as 289.2 ± 261.8 μU/mL; in the assay with db/db mouse [2] (day 35, pioglitazone 0.01(w/w)%, vildagliptin 0.03(w/w)%), 200.2 ± 78.0 μU/mL; in the assay with db/db mouse [3], 739.5 ± 472.8 μU/mL. Also, the plasma glucose level in the assay on db/db mouse [1] was determined as 411.0 ± 54.4 mg/dL; in the assay on db/db mouse [2] (day 35, pioglitazone hydrochloride 0.01(w/w)% as pioglitazone, vildagliptin 0.03(w/w)%), 348.5 ± 97.4 mg/dL; in the assay on db/db mouse [3], 341.0 ± 100.6 mg/dL. Besides, the “plasma insulin/plasma glucose value” in the assay on db/db mouse [1] was found to be 72.9 ± 64.5 μU/mg; in the assay on db/db mouse [2] (day 35, plasma insulin level divided by plasma glucose level), 63.9 ± 35.9 μU/mg; in the assay on db/db mouse [3] it was 261.7 ± 217.9 μU/mg. For the same compound, the pancreatic insulin content with db/db mouse [1] was found to be 2314.2 ± 1285.4 μU/mg tissue; in the assay with db/db mouse [2] (setting [4]) it was 834.7 ± 275.3 μU/mg tissue; with db/db mouse [3] it was 1117.2 ± 479.7 μU/mg tissue.

Regarding `N[C@@H](CC(=O)N1CCn2c(nnc2C(F)(F)F)C1)Cc1cc(F)c(F)cc1F` [sitagliptin], in the assay with db/db mouse [3], the plasma insulin level is 103.1 ± 47.2 μU/mL, the plasma glucose level came out at 492.3 ± 38.3 mg/dL, the “plasma insulin/plasma glucose value” is reported as 21.6 ± 11.3 μU/mg and the pancreatic insulin content is 331.1 ± 79.6 μU/mg tissue.

For `N#C[C@@H]1CCCN1C(=O)CNC12CC3CC(CC(O)(C3)C1)C2` [vildagliptin, (2S)-1-{[(3-hydroxy-1-adamantyl)amino]acetyl}-2-cyano-pyrrolidine], the pancreatic insulin content with db/db mouse [2] (setting [4]) stood at 559.2 ± 169.2 μU/mg tissue.
